Reference: US6589941B1 (priority 1995, dated 2003)

Columns and labels:
[1] = tested on: human tumor cell strain K562-WT; conditions: FIG. 8
[2] = tested on: tumor cell strain F46-WT of the mouse
Method: The formation of resistance is based on the amplification of the MDR gene. This is indicated with the aid of the Northern Blotting Technique, a method for indicating RNA molecules, i.e., the transcription of a gene, using the MDR gene as a probe (FIG. 10).
The tumor cell strain F4-6-WT of the mouse (WT=wild type=sensitive to cytostatic treatment=no amplification of the MDR gene) is treated over several weeks with staged increases in concentration of adriamycin. […] The formation of resistance is based on the amplification of the MDR gene. This is indicated with the aid of the Northern Technique, a method for indicating RNA molecules, i.e., the transcription of a gene, using the MDR gene as a probe (FIG. 15). […] The levels of β-actin MRNA are likewise analyzed as comparison. β-actin is used as an internal control for the RNA quantity.
In parallel experiments, adriamycin is administered with 1 μg/ml of a respective 5′ substituted nucleoside.

[3] = tested on: SV40-DNA amplification in SV40 transformed embryonic CO631 hamster cells; assay: SV40-DNA gene amplification system in SV40-transformed hamster cells; type: cell-based, Chinese Hamster; conditions: for effect on SV40 gene amplification: model substance given alone, FIGS. 1 to 3
From the text: To investigate the amplification phenomena, a hamster cell strain is used which contains a virus (simian virus 40) integrated in the genome. It is known for this cell strain that an addition of genotoxic substances, but also various “non-genotoxic” carcinogens and tumor inducers, leads to amplification of SV40-DNA in the hamster genome. The method is based on the fact that marked SV40-DNA with hamster cell-DNA containing SV40-DNA in an amplified number, serving as a probe, is hybridized. The quantity of bound probe gives an insight into the degree of amplification of the integrated virus-DNA.
In order to determine the degree of amplification, the albumin-gene-DNA is measured simultaneously with the SV40-DNA. The albumin-gene, as opposed to SV40-DNA, is not amplified in the cell. Accordingly the value of the relative SV40-DNA content results from the quotient of the signal of the DNA probe hybridized with SV40-DNA to the signal of the DNA probe hybridized with albumin gene from the same SV40 transformed embryonic CO631 hamster cells.
The effect of the above named model substances alone or in combination with a carcinogen is tested in the gene amplification system.

[4] = tested on: Saccharomyces cerevisiae MP1; assay: Recombination / mutation experiments with yeast; type: cell-based; conditions: for anti-recombinogenic effects in Saccharomyces cerevisiae MP1: FIGS. 11 and 12
[5] = tested on: MDR gene in F46-WT cells; assay: Northern Blot analysis of RNA with the MDR gene as probe; type: cell-based, mouse; conditions: BVDU+adriamycin treatment, FIG. 10
From the text: Expression of the MDR genes in the tumor cell strain F4-6WT of the mouse.

Question: With `COc1cccc2c1C(=O)c1c(O)c3c(c(O)c1C2=O)C[C@@](O)(C(=O)CO)C[C@@H]3O[C@H]1C[C@H](N)[C@H](O)[C@H](C)O1` [adriamycin] as the molecule, how does the “sensitivity of cells after long term treatment with staged increase in concentration” value ([1]; 20 ng/ml adriamycin, K562-WT) read?
Answer: totally insensitive

Question: And the “toxic effect on non-resistant cells” value ([1]; 20 ng/ml adriamycin, treatment time 4 days, K562-WT)?
Answer: severely toxic effect

Question: What about the “sensitivity of cells after long term treatment with staged increase in concentration” value ([2]; 20 ng/ml adriamycin, F46-WT, FIGS. 9, 13, 14) of the same molecule?
Answer: totally insensitive

Question: Which “effect on SV40 gene amplification” value [3] does the source give for `CC(C)=O` [acetone] here?
Answer: no effect

Question: `Nc1nc(=O)n([C@H]2C[C@H](O)[C@@H](CO)O2)cc1I` [5-iodo-2′-deoxycytidine] was tested. Which “anti-recombinogenic effects in Saccharomyces cerevisiae MP1” value (“anti-recombinogenic effects” for short) [4] did it give?
Answer: anti-recombinogenic effects

Question: With `CN(C)C=O` [dimethylfornamide, dimethylformamide] as the molecule, how does the “effect on SV40 gene amplification” value [3] read?
Answer: no effect

Question: With `O=c1[nH]c(=O)n([C@H]2C[C@H](O)[C@@H](CO)S2)cc1/C=C/Br` [(E)-5(2-bromovinyl-2′-deoxy-4′-thiouridine] as the molecule, how does the “anti-recombinogenic effects” value [4] read?
Answer: anti-recombinogenic effects

Question: How did the “effect on SV40 gene amplification” value [3] turn out when `CCCCCCCCCCCCCC(=O)O[C@@H]1[C@@H](C)[C@@]2(O)[C@@H](C=C(CO)C[C@]3(O)C(=O)C(C)=C[C@@H]23)[C@H]2C(C)(C)[C@]12OC(C)=O` [TPA, 12-0-tetradecanoyl-phorbol-13-acetate] was run?
Answer: increase the SV40 gene amplification

Question: `O=c1[nH]c(=O)n([C@H]2C[C@H](O)[C@@H](CO)O2)cc1/C=C/Br` [BVDU, (E)-5-(2-bromovinyl-)2′-deoxyuridine] was tested. Which “effect on spontaneous degree of amplification” value ([3]; BVDU alone, repeat experiment, FIG. 6) did it give?
Answer: slightly to lessen the spontaneous degree of amplification

Question: And the “effect on AMP-induced gene amplification” value ([3]; with S9-mix, lower dose range than without S9-mix, FIG. 7)?
Answer: lowering of AMP-induced gene amplification

Question: What about the “concentration at which inhibition of AMP-induced gene amplification starts” value ([3]; without S9-mix, FIG. 5) of the same molecule?
Answer: about 0.05 μg/ml

Question: And the “concentration leading to total inhibition of the AMP-induced gene amplification” value ([3]; without S9-mix, dose dependent, FIG. 5)?
Answer: 5 µg/mL

Question: What about the “formation of resistance to adriamycin” value ([1]; 0.5 or 1 μg/ml BVDU given together with adriamycin, K562-WT, 6 to 8 weeks) of the same molecule?
Answer: prevents the formation of resistance to adriamycin

Question: And the “concentration from which BVDU acts in a toxic manner” value ([1]; human tumor cells)?
Answer: about 10 μg/ml

Question: What about the “formation of resistance to adriamycin” value ([2]; 0.5 or 1 μg/ml BVDU given together with adriamycin, F46-WT, 6 to 8 weeks, FIG. 9) of the same molecule?
Answer: prevents the formation of resistance to adriamycin

Question: What about the “concentration from which BVDU acts in a toxic manner” value ([2]; mouse cells, FIG. 9) of the same molecule?
Answer: about 8 μg/ml

Question: What about the “anti-recombinogenic effects” value [4] of the same molecule?
Answer: anti-recombinogenic effects

Question: What about the “effect on mutation in yeast” value ([4]; with and without S9-mix, FIG. 4) of the same molecule?
Answer: co-mutagenic

Question: What about the “effect on recombination in yeast” value ([4]; with and without liver microsomes (S9-mix), more visible and at lower concentration with S9-mix, FIG. 4) of the same molecule?
Answer: anti-recombinogenic

Question: What about the “amplification of the MDR gene compared with adriamycin treatment alone” value [5] of the same molecule?
Answer: considerably weaker amplification of the MDR gene

Question: For `O=c1ccc2ccccc2o1` [coumarin], which “effect on SV40 gene amplification” value [3] is on record?
Answer: increase the SV40 gene amplification

Question: How did the “anti-recombinogenic effects” value [4] turn out when `O=c1[nH]c(=O)n([C@@H]2O[C@H](CO)[C@@H](O)[C@@H]2O)cc1/C=C/Br` [(E)-5-(2-bromovinyl)-1-β-D-arabinofuranosyl-uracil] was run?
Answer: anti-recombinogenic effects

Question: With `CC(=N)S` [thioacetamide] as the molecule, how does the “effect on SV40 gene amplification” value [3] read?
Answer: increase the SV40 gene amplification

Question: How did the “effect on SV40 gene amplification” value [3] turn out when `C=C(C)[C@@]12O[C@@]3(c4ccccc4)O[C@@H]1[C@@H]1[C@@H]4O[C@]4(CO)[C@@H](O)[C@]4(O)C(=O)C(C)=C[C@H]4[C@@]1(O3)[C@H](C)[C@H]2OC(=O)/C=C/C=C/c1ccccc1` [mezerein] was run?
Answer: increase the SV40 gene amplification

Question: How did the “effect on SV40 gene amplification” value [3] turn out when `C1CN1c1nc(N2CC2)nc(N2CC2)n1` [TEM, Triethylenmelamin] was run?
Answer: increase the SV40 gene amplification

Question: With `O=c1[nH]c(=O)n([C@H]2C[C@H](O)[C@@H](CO)O2)cc1I` [5-iodo-2′-deoxyuridine] as the molecule, how does the “anti-recombinogenic effects” value [4] read?
Answer: anti-recombinogenic effects

Question: Which “effect on SV40 gene amplification” value [3] does the source give for `CC(N)=O` [acetamide] here?
Answer: increase the SV40 gene amplification

Question: For `C[C@]12CC[C@H]3[C@@H](CCC4=CC(=O)CC[C@@]43C)[C@@H]1CC[C@@H]2O` [testosterone], which “effect on the amplifying effect of methotrexate (MTX)” value ([3]; with S9-mix, FIG. 3) is on record?
Answer: reduces the amplifying effect of methotrexate (MTX)

Question: And the “effect on the amplifying effect of amino-6-mercaptopurine (AMP)” value ([3]; without S9-mix, FIG. 3)?
Answer: increases the amplifying effect of amino-6-mercaptopurine (AMP)
